Assay results reported in patent publication US8802700B2 (Vertex Pharmaceuticals Incorporated, priority 2010, dated 2014).

The compounds below were run against T1, ΔF508-CFTR (Homo sapiens, UniProt P13569, DEL508-508) (assay: Membrane potential optical assay (FRET voltage-sensor dyes, VIPR), identification of potentiator compounds). Conditions: Table 3; assay not given.
T1 construct: expressed in transfected cells
T1 sequence (P13569 with tags, fused parts or gaps DEL508-508): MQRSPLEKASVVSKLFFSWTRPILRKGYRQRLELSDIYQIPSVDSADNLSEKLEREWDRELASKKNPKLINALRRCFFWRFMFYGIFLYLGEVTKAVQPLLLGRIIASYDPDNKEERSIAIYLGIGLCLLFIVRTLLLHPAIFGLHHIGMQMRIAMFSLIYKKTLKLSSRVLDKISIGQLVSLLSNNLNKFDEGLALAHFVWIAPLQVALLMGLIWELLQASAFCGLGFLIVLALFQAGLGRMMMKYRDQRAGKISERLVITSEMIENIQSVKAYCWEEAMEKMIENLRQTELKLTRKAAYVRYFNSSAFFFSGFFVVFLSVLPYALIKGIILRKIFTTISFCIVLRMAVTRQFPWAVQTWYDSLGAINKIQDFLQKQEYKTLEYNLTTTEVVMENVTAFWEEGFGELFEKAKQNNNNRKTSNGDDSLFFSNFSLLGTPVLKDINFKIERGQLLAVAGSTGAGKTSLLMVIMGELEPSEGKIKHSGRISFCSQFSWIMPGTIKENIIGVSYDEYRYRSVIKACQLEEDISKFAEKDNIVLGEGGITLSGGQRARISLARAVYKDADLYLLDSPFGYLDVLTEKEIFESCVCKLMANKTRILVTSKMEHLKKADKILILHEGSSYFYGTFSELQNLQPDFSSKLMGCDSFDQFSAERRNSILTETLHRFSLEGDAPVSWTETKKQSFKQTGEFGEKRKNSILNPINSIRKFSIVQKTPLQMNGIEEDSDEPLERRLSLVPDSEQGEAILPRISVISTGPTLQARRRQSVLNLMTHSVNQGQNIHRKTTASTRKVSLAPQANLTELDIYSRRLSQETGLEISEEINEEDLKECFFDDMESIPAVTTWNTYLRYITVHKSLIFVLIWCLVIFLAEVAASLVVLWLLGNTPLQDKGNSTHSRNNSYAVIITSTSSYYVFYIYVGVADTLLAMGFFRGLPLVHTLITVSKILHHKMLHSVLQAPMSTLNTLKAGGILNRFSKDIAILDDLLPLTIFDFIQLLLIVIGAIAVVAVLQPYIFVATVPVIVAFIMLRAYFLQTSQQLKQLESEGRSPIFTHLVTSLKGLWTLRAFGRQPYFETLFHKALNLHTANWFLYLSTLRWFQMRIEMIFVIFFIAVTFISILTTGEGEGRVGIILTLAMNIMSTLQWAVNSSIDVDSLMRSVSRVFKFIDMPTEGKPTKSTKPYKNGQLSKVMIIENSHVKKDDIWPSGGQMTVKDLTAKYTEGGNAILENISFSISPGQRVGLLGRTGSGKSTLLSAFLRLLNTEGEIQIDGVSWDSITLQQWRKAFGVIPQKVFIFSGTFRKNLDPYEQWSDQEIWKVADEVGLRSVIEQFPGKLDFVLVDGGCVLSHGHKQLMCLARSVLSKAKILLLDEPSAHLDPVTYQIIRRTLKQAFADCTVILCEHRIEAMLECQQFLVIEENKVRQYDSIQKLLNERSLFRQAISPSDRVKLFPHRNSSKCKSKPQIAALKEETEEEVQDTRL
Assay type: cell-based
Summary of the method: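 NIH3T3 mouse fibroblasts stably expressing ΔF508-CFTR, cultured 24 h at 27 °C, were loaded with FRET voltage dyes CC2-DMPE and DiSBAC2(3). Double-addition format: first addition of Cl⁻-free (gluconate) medium with or without compound; membrane-potential change read as fluorescence on VIPR II.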
Compound CC(=O)Nc1ccc(C(C)C)c(NC(=O)c2c[nH]c3ccccc3c2=O)c1 [Compound 243, N-(5-acetylamino-2-isopropyl-phenyl)-4-oxo-1H-quinoline-3-carboxamide] has an EC50 of 10 to 25 µM.
With O=C(Nc1ccccc1-c1cccc(F)c1)c1c[nH]c2ccccc2c1=O [Compound 277, N-[2-(3-fluorophenyl)phenyl]-4-oxo-1H-quinoline-3-carboxamide] the EC50 was < 10 µM.
With CSc1ccccc1-c1ccccc1NC(=O)c1c[nH]c2ccccc2c1=O [Compound 279, N-[2-(2-methylsulfanylphenyl)phenyl]-4-oxo-1H-quinoline-3-carboxamide] the EC50 was < 10 µM.
In the case of CCc1ccc(N)cc1NC(=O)c1c[nH]c2ccccc2c1=O [Compound 282, N-(5-amino-2-ethyl-phenyl)-4-oxo-1H-quinoline-3-carboxamide], the EC50 is reported as < 10 µM.

Same assay, conditions: Table 3; assay not given; read-out: % Activity (% Efficacy, relative efficacy)
COC(=O)Nc1ccc(C(C)C)c(NC(=O)c2c[nH]c3ccccc3c2=O)c1 [Compound 239, [4-isopropyl-3-[(4-oxo-1H-quinolin-3-yl)carbonylamino]phenyl]aminoformic acid methyl ester] gave an Emax of 25 to 100%.
O=C(Nc1ccccc1OCc1ccccc1)c1c[nH]c2ccccc2c1=O [Compound 240, N-(2-benzyloxyphenyl)-4-oxo-1H-quinoline-3-carboxamide] was tested, and the Emax was 25 to 100%.
In the case of O=C(Nc1cccc2cccnc12)c1c[nH]c2ccccc2c1=O [Compound 241, 4-oxo-N-(8-quinolyl)-1H-quinoline-3-carboxamide], the Emax is reported as 25 to 100%.
In the case of Nc1cc(NC(=O)c2c[nH]c3ccccc3c2=O)c(Cl)cc1Cl [Compound 242, N-(5-amino-2,4-dichloro-phenyl)-4-oxo-1H-quinoline-3-carboxamide], the Emax is reported as 25 to 100%.
CC(=O)Nc1ccc(C(C)C)c(NC(=O)c2c[nH]c3ccccc3c2=O)c1 [Compound 243, N-(5-acetylamino-2-isopropyl-phenyl)-4-oxo-1H-quinoline-3-carboxamide] gave an Emax of 25 to 100%.
O=C(Nc1ccc2c3c([nH]c2c1)CCCC3)c1c[nH]c2ccccc2c1=O [Compound 244, 4-oxo-N-(6,7,8,9-tetrahydro-5H-carbazol-2-yl)-1H-quinoline-3-carboxamide] was tested, and the Emax was 25 to 100%.
O=C(Nc1ccccc1Oc1ccc(Cl)cc1Cl)c1c[nH]c2ccccc2c1=O [Compound 245, N-[2-(2,4-dichlorophenoxy)phenyl]-4-oxo-1H-quinoline-3-carboxamide] gave an Emax of 25 to 100%.
Cc1ccc(NC(=O)c2c[nH]c3ccccc3c2=O)cc1C [Compound 246, N-(3,4-dimethylphenyl)-4-oxo-1H-quinoline-3-carboxamide] was tested, and the Emax was 25 to 100%.
Work on O=C(Nc1ccccc1-c1ccccc1Oc1ccccc1)c1c[nH]c2ccccc2c1=O [Compound 247, 4-oxo-N-[2-(2-phenoxyphenyl)phenyl]-1H-quinoline-3-carboxamide] yielded an Emax of 25 to 100%.
Work on CC(=O)Nc1cc(NC(=O)c2c[nH]c3ccccc3c2=O)ccc1C [Compound 248, N-(3-Acetylamino-4-methyl-phenyl)-4-oxo-1H-quinoline-3-carboxamide] yielded an Emax of 25 to 100%.
CCc1ccc(NC(=O)OC)cc1NC(=O)c1c[nH]c2ccccc2c1=O [Compound 249, [4-ethyl-3-[(4-oxo-1H-quinolin-3-yl)carbonylamino]phenyl]aminoformic acid methyl ester] gave an Emax of 25 to 100%.
COc1ccc(NC(C)=O)cc1NC(=O)c1c[nH]c2ccccc2c1=O [Compound 250, N-(5-acetylamino-2-methoxy-phenyl)-4-oxo-1H-quinoline-3-carboxamide] was tested, and the Emax was < 25%.
For CC(C)COC(=O)NCC(C)(C)c1ccc(NC(=O)c2c[nH]c3ccccc3c2=O)cc1 [Compound 251, [2-methyl-2-[4-[(4-oxo-1H-quinolin-3-yl)carbonylamino]phenyl]-propyl]aminoformic acid isobutyl ester], the Emax was 25 to 100%.
For O=C(c1ccccc1)c1ccccc1NC(=O)c1c[nH]c2ccccc2c1=O [Compound 252, N-(2-benzoylphenyl)-4-oxo-1H-quinoline-3-carboxamide], the Emax was 25 to 100%.
O=C(Nc1ccccc1-c1cccc(OC(F)(F)F)c1)c1c[nH]c2ccccc2c1=O [Compound 253, 4-oxo-N-[2-[3-(trifluoromethoxy)phenyl]phenyl]-1H-quinoline-3-carboxamide] was tested, and the Emax was 25 to 100%.
O=C(Nc1cc2[nH]ccc2cc1F)c1c[nH]c2ccc(F)cc2c1=O [Compound 254, 6-fluoro-N-(5-fluoro-1H-indol-6-yl)-4-oxo-1H-quinoline-3-carboxamide] showed an Emax of 25 to 100%.
CC(C)(C)c1cc(C(C)(C)C)c(NC(=O)c2c[nH]c3ccc(S(=O)(=O)N4CCCC4)cc3c2=O)cc1O [Compound 255, N-(5-hydroxy-2,4-ditert-butyl-phenyl)-4-oxo-6-pyrrolidin-1-ylsulfonyl-1H-quinoline-3-carboxamide] showed an Emax of 25 to 100%.
For O=C(Nc1ccc2[nH]nnc2c1)c1c[nH]c2ccccc2c1=O [Compound 256, N-(1H-benzotriazol-5-yl)-4-oxo-1H-quinoline-3-carboxamide], the Emax was < 25%.
Cc1cc(NC(=O)c2c[nH]c3ccccc3c2=O)ccc1F [Compound 257, N-(4-fluoro-3-methyl-phenyl)-4-oxo-1H-quinoline-3-carboxamide] gave an Emax of 25 to 100%.
O=C(Nc1ccc2c(c1)NCC2)c1c[nH]c2ccccc2c1=O [Compound 258, N-Indolin-6-yl-4-oxo-1H-quinoline-3-carboxamide] was tested, and the Emax was 25 to 100%.
CCC(C)c1c[nH]c2cc(NC(=O)c3c[nH]c4ccccc4c3=O)ccc12 (stereo not drawn) [Compound 259, 4-oxo-N-(3-sec-butyl-1H-indol-6-yl)-1H-quinoline-3-carboxamide] showed an Emax of 25 to 100%.
CC(C)(C)c1ccc(N)cc1NC(=O)c1c[nH]c2ccccc2c1=O [Compound 260, N-(5-Amino-2-tert-butyl-phenyl)-4-oxo-1H-quinoline-3-carboxamide] gave an Emax of 25 to 100%.
In the case of Cc1ccc(-c2ccccc2NC(=O)c2c[nH]c3ccccc3c2=O)cc1C [Compound 261, N-[2-(3,4-dimethylphenyl)phenyl]-4-oxo-1H-quinoline-3-carboxamide], the Emax is reported as 25 to 100%.
Work on O=C1CSc2ccc(NC(=O)c3c[nH]c4ccccc4c3=O)cc2N1 [Compound 262, 1,4-dihydro-N-(3,4-dihydro-3-oxo-2H-benzo[b][1,4]thiazin-6-yl)-4-oxoquinoline-3-carboxamide] yielded an Emax of 25 to 100%.
For CCc1cc(Br)ccc1NC(=O)c1c[nH]c2ccccc2c1=O [Compound 263, N-(4-bromo-2-ethyl-phenyl)-4-oxo-1H-quinoline-3-carboxamide], the Emax was 25 to 100%.
For CCOc1ccc(OCC)c(NC(=O)c2c[nH]c3ccccc3c2=O)c1 [Compound 264, N-(2,5-diethoxyphenyl)-4-oxo-1H-quinoline-3-carboxamide], the Emax was 25 to 100%.
Compound O=C(Nc1ccccc1Cc1ccccc1)c1c[nH]c2ccccc2c1=O [Compound 265, N-(2-benzylphenyl)-4-oxo-1H-quinoline-3-carboxamide] has an Emax of 25 to 100%.
CC(C)(C)c1cc(C(F)(F)F)c(NC(=O)c2c[nH]c3ccccc3c2=O)cc1O [Compound 266, N-[5-hydroxy-4-tert-butyl-2-(trifluoromethyl)phenyl]-4-oxo-1H-quinoline-3-carboxamide] was tested, and the Emax was 25 to 100%.
Compound O=C(Nc1ccc(Oc2ccccc2)cc1)c1c[nH]c2ccccc2c1=O [Compound 267, 4-oxo-N-(4-phenoxyphenyl)-1H-quinoline-3-carboxamide] has an Emax of 25 to 100%.
In the case of CC(C)(C)c1ccc(NC(=O)c2c[nH]c3ccccc3c2=O)cc1S(N)(=O)=O [Compound 268, 4-oxo-N-(3-sulfamoyl-4-tert-butyl-phenyl)-1H-quinoline-3-carboxamide], the Emax is reported as 25 to 100%.
Work on CCOC(=O)Nc1ccc(C(C)C)c(NC(=O)c2c[nH]c3ccccc3c2=O)c1 [Compound 269, [4-isopropyl-3-[(4-oxo-1H-quinolin-3-yl)carbonylamino]phenyl]aminoformic acid ethyl ester] yielded an Emax of 25 to 100%.
With N#Cc1cc2ccc(NC(=O)c3c[nH]c4ccccc4c3=O)cc2[nH]1 [Compound 270, N-(2-cyano-1H-indol-6-yl)-4-oxo-1H-quinoline-3-carboxamide] the Emax was 25 to 100%.
Work on CC(C)(C)c1ccc(NC(=O)c2c[nH]c3ccccc3c2=O)cc1N [Compound 271, N-(3-amino-4-tert-butyl-phenyl)-4-oxo-1H-quinoline-3-carboxamide] yielded an Emax of 25 to 100%.
O=C(Nc1cc(NS(=O)(=O)CCN2CCOCC2)cc(C(F)(F)F)c1)c1c[nH]c2ccccc2c1=O [Compound 272, N-[3-(2-morpholinoethylsulfonylamino)-5-(trifluoromethyl)phenyl]-4-oxo-1H-quinoline-3-carboxamide] gave an Emax of 25 to 100%.
CC(C)(C)OC(=O)NC1CCCc2ccc(NC(=O)c3c[nH]c4ccccc4c3=O)cc21 (stereo not drawn) [Compound 273, [7-[(4-oxo-1H-quinolin-3-yl)carbonylamino]tetralin-1-yl]aminoformic acid tert-butyl ester] was tested, and the Emax was > 100%.
For CC(C)(C)c1cc2cc[nH]c2cc1NC(=O)c1c[nH]c2ccc(S(=O)(=O)N3CCCC3)cc2c1=O [Compound 274, 4-oxo-6-pyrrolidin-1-ylsulfonyl-N-(5-tert-butyl-1H-indol-6-yl)-1H-quinoline-3-carboxamide], the Emax was 25 to 100%.
CC(C)(C)c1ccc(NC(=O)c2cnc3ccccc3c2OCc2ccccc2)cc1O [Compound 275, 4-Benzyloxy-N-(3-hydroxy-4-tert-butyl-phenyl)-quinoline-3-carboxamide] gave an Emax of 25 to 100%.
For O=C(Nc1ccc(S(=O)(=O)N2CCOCC2)cc1)c1c[nH]c2ccccc2c1=O [Compound 276, N-(4-morpholinosulfonylphenyl)-4-oxo-1H-quinoline-3-carboxamide], the Emax was 25 to 100%.
With O=C(Nc1ccccc1-c1cccc(F)c1)c1c[nH]c2ccccc2c1=O [Compound 277, N-[2-(3-fluorophenyl)phenyl]-4-oxo-1H-quinoline-3-carboxamide] the Emax was > 100%.
O=C(Nc1ccccc1-c1cccc(C(F)(F)F)c1)c1c[nH]c2ccccc2c1=O [Compound 278, 4-oxo-N-[2-[3-(trifluoromethyl)phenyl]phenyl]-1H-quinoline-3-carboxamide] showed an Emax of 25 to 100%.
CSc1ccccc1-c1ccccc1NC(=O)c1c[nH]c2ccccc2c1=O [Compound 279, N-[2-(2-methylsulfanylphenyl)phenyl]-4-oxo-1H-quinoline-3-carboxamide] was tested, and the Emax was 25 to 100%.
O=C(Nc1ccc2ncccc2c1)c1c[nH]c2ccccc2c1=O [Compound 280, 4-oxo-N-(6-quinolyl)-1H-quinoline-3-carboxamide] was tested, and the Emax was < 25%.
Cc1ccc(NC(=O)c2c[nH]c3ccccc3c2=O)c(C)c1 [Compound 281, N-(2,4-dimethylphenyl)-4-oxo-1H-quinoline-3-carboxamide] was tested, and the Emax was 25 to 100%.
Compound CCc1ccc(N)cc1NC(=O)c1c[nH]c2ccccc2c1=O [Compound 282, N-(5-amino-2-ethyl-phenyl)-4-oxo-1H-quinoline-3-carboxamide] has an Emax of 25 to 100%.
